Assay results published in BindingDB's records for doi:10.1021/np049624z (Harvard Medical School, 2005).

Target: Forkhead box protein O1 (Homo sapiens, UniProt Q12778)
Assay: Inhibition of FOXO1a nuclear export in PTEN-deficient cells

Chain of Forkhead box protein O1 (Q12778 whole entry): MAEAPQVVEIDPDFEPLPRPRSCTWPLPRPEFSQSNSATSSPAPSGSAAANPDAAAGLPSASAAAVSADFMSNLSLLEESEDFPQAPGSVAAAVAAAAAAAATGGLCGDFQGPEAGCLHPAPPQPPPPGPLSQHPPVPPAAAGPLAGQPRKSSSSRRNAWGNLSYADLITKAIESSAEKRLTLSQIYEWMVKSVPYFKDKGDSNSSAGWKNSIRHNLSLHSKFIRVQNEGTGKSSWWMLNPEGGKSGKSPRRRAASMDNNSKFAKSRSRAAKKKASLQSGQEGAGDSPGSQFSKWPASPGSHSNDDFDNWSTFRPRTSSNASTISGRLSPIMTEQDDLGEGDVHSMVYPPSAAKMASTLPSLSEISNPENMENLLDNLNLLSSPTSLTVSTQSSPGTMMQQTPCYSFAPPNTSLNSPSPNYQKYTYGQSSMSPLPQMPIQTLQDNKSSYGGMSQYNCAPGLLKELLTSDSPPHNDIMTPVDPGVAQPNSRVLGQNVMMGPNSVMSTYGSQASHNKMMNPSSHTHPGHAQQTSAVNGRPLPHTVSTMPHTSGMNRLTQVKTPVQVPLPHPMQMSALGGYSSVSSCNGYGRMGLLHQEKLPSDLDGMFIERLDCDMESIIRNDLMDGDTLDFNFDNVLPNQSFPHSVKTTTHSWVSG

IC50 [µM]	SMILES
5	CN(C)CCCOc1c(Br)cc(/C=C/C(=O)NCCCOc2c(Br)cc(CCN(C)C)cc2Br)cc1Br [psammaplysene A]
20	CNCCCOc1c(Br)cc(/C=C/C(=O)NCCCOc2c(Br)cc(CCN(C)C)cc2Br)cc1Br [psammaplysene B]
